# Measurements from ChEMBL document CHEMBL1201862, “PubChem BioAssay data set” (2004).
#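 Briefly, cells in 96-well plates were exposed to five compound concentrations for 48 h, and endpoints were estimated by linear interpolation. The concentration for 50% growth inhibition is given as GI50.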 Activity calls are given as the source filed them. Cut-off read from the data, not from the text of the source: active = GI50 up to about 1.1 µM and inactive = higher.
# What was measured:
# Test in all cases: NCI anticancer screen, dose series, 48 h
# 786-0 = system: 786-0
# A498 = system: A498
# A549 = system: A549
# ACHN = system: ACHN
# BT-549 = system: BT-549
# CAKI-1 = system: CAKI-1
# CCRF-CEM = system: CCRF-CEM
# COLO 205 = system: COLO 205
# DU-145 = system: DU-145
# EKVX = system: EKVX
# HCC 2998 = system: HCC 2998
# HCT-116 = system: HCT-116
# HCT-15 = system: HCT-15
# HL-60 = system: HL-60
# HOP-62 = system: HOP-62
# HOP-92 = system: HOP-92
# HT-29 = system: HT-29
# Hs-578T = system: Hs-578T
# IGROV-1 = system: IGROV-1
# KM12 = system: KM12
# LOX IMVI = system: LOX IMVI
# M14 = system: M14
# MCF7 = system: MCF7
# MDA-MB-231 = system: MDA-MB-231
# MDA-MB-435 = system: MDA-MB-435
# MDA-N = system: MDA-N
# MOLT-4 = system: MOLT-4
# Malme-3M = system: Malme-3M
# NCI-H226 = system: NCI-H226
# NCI-H23 = system: NCI-H23
# NCI-H460 = system: NCI-H460
# NCI-H522 = system: NCI-H522
# NCI/ADR-RES = system: NCI/ADR-RES
# OVCAR-3 = system: OVCAR-3
# OVCAR-4 = system: OVCAR-4
# OVCAR-5 = system: OVCAR-5
# OVCAR-8 = system: OVCAR-8
# PC-3 = system: PC-3
# RPMI-8226 = system: RPMI-8226
# RXF 393 = system: RXF 393
# SF-268 = system: SF-268
# SF-295 = system: SF-295
# SF-539 = system: SF-539
# SK-MEL-28 = system: SK-MEL-28
# SK-MEL-2 = system: SK-MEL-2
# SK-MEL-5 = system: SK-MEL-5
# SK-OV-3 = system: SK-OV-3
# SN12C = system: SN12C
# SNB-19 = system: SNB-19
# SNB-75 = system: SNB-75
# SR = system: SR
# SW-620 = system: SW-620
# T47D = system: T47D
# TK-10 = system: TK-10
# U-251 = system: U-251
# UACC-257 = system: UACC-257
# UACC-62 = system: UACC-62
# UO-31 = system: UO-31
# K562 = system: K562
smiles,measurement,setting,value
CC(C)[Si]1(C(C)C)OCC2OC(n3ccc(=O)[nH]c3=O)C([Se]c3ccccc3)C2O[Si](C(C)C)(C(C)C)O1 (centres undefined),GI50,786-0,3.83 µM (inactive)
same,GI50,A498,7.87 µM (inactive)
same,GI50,A549,9.46 µM (inactive)
same,GI50,ACHN,2.61 µM (inactive)
same,GI50,BT-549,11.6 µM (inactive)
same,GI50,CAKI-1,11.5 µM (inactive)
same,GI50,CCRF-CEM,8.91 µM (inactive)
same,GI50,COLO 205,4.86 µM (inactive)
same,GI50,DU-145,12.2 µM (inactive)
same,GI50,EKVX,4.93 µM (inactive)
same,GI50,HCC 2998,1.58 µM (inactive)
same,GI50,HCT-116,2.62 µM (inactive)
same,GI50,HCT-15,4.39 µM
same,GI50,HL-60,5.89 µM (inactive)
same,GI50,HOP-62,12.3 µM (inactive)
same,GI50,HOP-92,3.5 µM (inactive)
same,GI50,HT-29,1.66 µM (inactive)
same,GI50,Hs-578T,0.762 µM (active)
same,GI50,IGROV-1,2.44 µM (inactive)
same,GI50,KM12,2.16 µM (inactive)
same,GI50,LOX IMVI,0.769 µM (active)
same,GI50,M14,8.24 µM (inactive)
same,GI50,MCF7,2.75 µM (inactive)
same,GI50,MDA-MB-231,2.83 µM (inactive)
same,GI50,MDA-MB-435,5.42 µM (inactive)
same,GI50,MDA-N,3.4 µM (inactive)
same,GI50,MOLT-4,7.38 µM (inactive)
same,GI50,Malme-3M,2.81 µM (inactive)
same,GI50,NCI-H226,1.55 µM (inactive)
same,GI50,NCI-H23,3.57 µM (inactive)
same,GI50,NCI-H460,1.87 µM (inactive)
same,GI50,NCI-H522,2.1 µM (inactive)
same,GI50,NCI/ADR-RES,11.2 µM (inactive)
same,GI50,OVCAR-3,4.52 µM (inactive)
same,GI50,OVCAR-4,2.88 µM (inactive)
same,GI50,OVCAR-5,9.48 µM (inactive)
same,GI50,OVCAR-8,3.4 µM (inactive)
same,GI50,PC-3,3.35 µM (inactive)
same,GI50,RPMI-8226,2.95 µM (inactive)
same,GI50,RXF 393,4.55 µM (inactive)
same,GI50,SF-268,2.93 µM (inactive)
same,GI50,SF-295,5.9 µM (inactive)
same,GI50,SF-539,7.96 µM (inactive)
same,GI50,SK-MEL-28,3.59 µM (inactive)
same,GI50,SK-MEL-2,6.79 µM (inactive)
same,GI50,SK-MEL-5,3.01 µM (inactive)
same,GI50,SK-OV-3,16.5 µM (inactive)
same,GI50,SN12C,2.29 µM (inactive)
same,GI50,SNB-19,0.261 µM (active)
same,GI50,SNB-75,0.33 µM (active)
same,GI50,SR,3.72 µM (inactive)
same,GI50,SW-620,2.32 µM (inactive)
same,GI50,T47D,6.71 µM (inactive)
same,GI50,TK-10,7.46 µM (inactive)
same,GI50,U-251,2.07 µM (inactive)
same,GI50,UACC-257,4.31 µM (inactive)
same,GI50,UACC-62,4.71 µM (inactive)
same,GI50,UO-31,8.77 µM (inactive)
CC(C)(C)c1cc(OCc2nnc3sc(-c4ccc(Cl)cc4)nn23)c(Cl)cc1OCc1nnc2sc(-c3ccc(Cl)cc3)nn12,GI50,786-0,3.97 µM (inactive)
same,GI50,A498,8.73 µM (inactive)
same,GI50,A549,4.21 µM (inactive)
same,GI50,ACHN,5.4 µM (inactive)
same,GI50,BT-549,4.7 µM (inactive)
same,GI50,CAKI-1,2.3 µM (inactive)
same,GI50,COLO 205,7.46 µM (inactive)
same,GI50,DU-145,4.19 µM (inactive)
same,GI50,EKVX,13.1 µM (inactive)
same,GI50,HCC 2998,2.34 µM (inactive)
same,GI50,HCT-116,3.54 µM (inactive)
same,GI50,HCT-15,3.31 µM
same,GI50,HL-60,2.46 µM (inactive)
same,GI50,HOP-62,5.87 µM (inactive)
same,GI50,HOP-92,0.895 µM (active)
same,GI50,HT-29,30.8 µM (inactive)
same,GI50,Hs-578T,5.7 µM (inactive)
same,GI50,IGROV-1,3.82 µM (inactive)
same,GI50,K562,1.95 µM (inactive)
same,GI50,KM12,2.47 µM (inactive)
same,GI50,LOX IMVI,5.04 µM (inactive)
same,GI50,M14,3.06 µM (inactive)
same,GI50,MCF7,3.17 µM (inactive)
same,GI50,MDA-MB-231,8.15 µM (inactive)
same,GI50,MDA-MB-435,0.478 µM (active)
same,GI50,MDA-N,0.644 µM (active)
same,GI50,MOLT-4,4.93 µM (inactive)
same,GI50,Malme-3M,2.93 µM (inactive)
same,GI50,NCI-H226,17.3 µM (inactive)
same,GI50,NCI-H23,4.94 µM (inactive)
same,GI50,NCI-H460,3.06 µM (inactive)
same,GI50,NCI-H522,0.564 µM (active)
same,GI50,NCI/ADR-RES,2.01 µM (inactive)
same,GI50,OVCAR-3,2.47 µM (inactive)
same,GI50,OVCAR-4,3.98 µM (inactive)
same,GI50,OVCAR-5,29.7 µM (inactive)
same,GI50,OVCAR-8,3.93 µM (inactive)
same,GI50,PC-3,4.62 µM (inactive)
same,GI50,RPMI-8226,3.56 µM (inactive)
same,GI50,RXF 393,2.81 µM (inactive)
same,GI50,SF-268,6.97 µM (inactive)
same,GI50,SF-295,3.3 µM (inactive)
same,GI50,SF-539,2.57 µM (inactive)
same,GI50,SK-MEL-28,3.89 µM (inactive)
same,GI50,SK-MEL-2,7.91 µM (inactive)
same,GI50,SK-MEL-5,0.726 µM (active)
same,GI50,SK-OV-3,4.06 µM (inactive)
same,GI50,SN12C,10.2 µM (inactive)
same,GI50,SNB-19,3.59 µM (inactive)
same,GI50,SNB-75,2.19 µM (inactive)
same,GI50,SR,0.315 µM (active)
same,GI50,SW-620,3.13 µM (inactive)
same,GI50,T47D,1.97 µM (inactive)
same,GI50,TK-10,8.47 µM (inactive)
same,GI50,U-251,5.79 µM (inactive)
same,GI50,UACC-257,11.5 µM (inactive)
same,GI50,UACC-62,4.45 µM (inactive)
same,GI50,UO-31,10.3 µM (inactive)
Oc1cc(Cl)cc2cc(Cl)cnc12,GI50,786-0,23 µM (inactive)
same,GI50,A498,12.5 µM (inactive)
same,GI50,A549,3.22 µM (inactive)
same,GI50,ACHN,2.44 µM (inactive)
same,GI50,BT-549,4.73 µM (inactive)
same,GI50,CAKI-1,12.9 µM (inactive)
same,GI50,CCRF-CEM,1.78 µM (inactive)
same,GI50,COLO 205,31 µM (inactive)
same,GI50,DU-145,6.47 µM (inactive)
same,GI50,EKVX,2.85 µM (inactive)
same,GI50,HCC 2998,25.1 µM (inactive)
same,GI50,HCT-116,2.67 µM (inactive)
same,GI50,HCT-15,0.598 µM
same,GI50,HL-60,0.288 µM (active)
same,GI50,HOP-62,7.41 µM (inactive)
same,GI50,HOP-92,21.5 µM (inactive)
same,GI50,HT-29,22.8 µM (inactive)
same,GI50,Hs-578T,22.1 µM (inactive)
same,GI50,IGROV-1,0.596 µM (active)
same,GI50,K562,0.989 µM (active)
same,GI50,KM12,5.13 µM (inactive)
same,GI50,LOX IMVI,0.597 µM (active)
same,GI50,M14,3.3 µM (inactive)
same,GI50,MCF7,3.4 µM (inactive)
same,GI50,MDA-MB-231,3.56 µM (inactive)
same,GI50,MDA-MB-435,2.87 µM (inactive)
same,GI50,MDA-N,6.34 µM (inactive)
same,GI50,MOLT-4,2.89 µM (inactive)
same,GI50,Malme-3M,2.25 µM (inactive)
same,GI50,NCI-H226,19.5 µM (inactive)
same,GI50,NCI-H23,2.75 µM (inactive)
same,GI50,NCI-H460,1.79 µM (inactive)
same,GI50,NCI-H522,3.16 µM (inactive)
same,GI50,NCI/ADR-RES,1.49 µM (inactive)
same,GI50,OVCAR-3,0.582 µM (active)
same,GI50,OVCAR-4,1.55 µM (inactive)
same,GI50,OVCAR-5,17.5 µM (inactive)
same,GI50,OVCAR-8,2.28 µM (inactive)
same,GI50,PC-3,2.94 µM (inactive)
same,GI50,RPMI-8226,2.59 µM (inactive)
same,GI50,RXF 393,5.07 µM (inactive)
same,GI50,SF-268,1.14 µM (inactive)
same,GI50,SF-295,1.92 µM (inactive)
same,GI50,SF-539,3.24 µM (inactive)
same,GI50,SK-MEL-28,5.12 µM (inactive)
same,GI50,SK-MEL-5,3.67 µM (inactive)
same,GI50,SK-OV-3,30.8 µM (inactive)
same,GI50,SN12C,2.3 µM (inactive)
same,GI50,SNB-19,4 µM (inactive)
same,GI50,SNB-75,5.35 µM (inactive)
same,GI50,SR,1.56 µM (inactive)
same,GI50,SW-620,3.15 µM (inactive)
same,GI50,T47D,3.34 µM (inactive)
same,GI50,TK-10,27.5 µM (inactive)
same,GI50,U-251,2.42 µM (inactive)
same,GI50,UACC-257,3.73 µM (inactive)
same,GI50,UACC-62,2.49 µM (inactive)
same,GI50,UO-31,3.21 µM (inactive)
